According to BigSolDB 2.1:

O=C(O)c1cc(O)c(O)c(O)c1
solubility (mole fraction)
Details | 293.15 K | 298.15 K | 303.15 K | 308.15 K | 313.15 K | 318.15 K
in methanol | 0.0639 | 0.0672 | 0.07 | 0.0721 | 0.0755 | 0.0768
in water | 0.00101 | 0.00135 | 0.00171 | 0.00227 | 0.00289 | 0.0038
